Measured values reported in US12636366B2, “Ruthenium (II) complexes and conjugates thereof for use as photosensitizer agent in photodynamic therapy” (Paris Sciences et Lettres, priority 2019, dated 2026).
Values belong to the molecule of their own block, whether it stands above or below them.

How the values were obtained:
Cys-34 residue of HSA = Cys-34 residue of HSA (Homo sapiens, UniProt P02768)
Method: UV-visible (UV-Vis) spectrophotometry was monitored on an Agilent Cary 8454 diode array spectrophotometer in the wavelength range between 190 and 1100 nm.
Interaction of complex 12 at the Cys-34 residue of HSA was investigated spectrophotometrically via the dithiodipyridine (DTDP) method described previously (Pichler et al., 2013). […] A first series of UV-Vis spectra (a) were recorded before addition of 110 μM DTDP and a second series of UV-Vis spectra (b) were recorded after addition of 110 μM DTDP and after another 40 min waiting. […] Blank experiment with compound 13 was carried out as well as a control experiment. The effect of protein unfolding on the thiol binding of complex 12 was studied by the addition of 0.5% (m/m) SDS to the protein prior to its reaction with the complex. This experiment allows to determine the amount of free Cys-34 residue of HSA as a function of the added equivalent of the complexes.

[1] = cited from earlier work

Sequence of Cys-34 residue of HSA (P02768 25-609): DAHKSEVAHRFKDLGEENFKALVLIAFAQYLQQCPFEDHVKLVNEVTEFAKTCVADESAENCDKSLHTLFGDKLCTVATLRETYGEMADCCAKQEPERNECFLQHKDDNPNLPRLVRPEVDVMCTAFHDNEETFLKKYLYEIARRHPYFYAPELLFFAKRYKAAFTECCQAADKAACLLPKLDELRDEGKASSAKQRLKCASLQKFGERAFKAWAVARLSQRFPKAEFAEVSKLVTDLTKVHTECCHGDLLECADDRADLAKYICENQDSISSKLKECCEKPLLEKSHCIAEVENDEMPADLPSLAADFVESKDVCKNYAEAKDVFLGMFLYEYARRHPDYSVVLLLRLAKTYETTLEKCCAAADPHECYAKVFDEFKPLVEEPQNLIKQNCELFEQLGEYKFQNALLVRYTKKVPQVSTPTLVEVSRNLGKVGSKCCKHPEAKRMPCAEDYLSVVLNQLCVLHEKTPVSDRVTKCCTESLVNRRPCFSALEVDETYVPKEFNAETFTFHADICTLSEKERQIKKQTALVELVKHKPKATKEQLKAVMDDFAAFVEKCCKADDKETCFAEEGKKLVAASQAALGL

Molecule: Cc1ccnc(-c2cc(C)ccn2)c1.[Cl-].[Cl-].[Ru+2].c1ccc(-c2ccnc3c2ccc2c(-c4ccccc4)ccnc23)cc1.c1ccc(-c2ccnc3c2ccc2c(-c4ccccc4)ccnc23)cc1 [Compound 13, (4,4′-Dimethyl-2,2′-bipyridine)bis(4,7-diphenyl-1,10-phenanthroline)ruthenium(II) dichlorine]
- Interaction with Cys-34 thiol group (free thiol content) of native HSA (Cys-34 residue of HSA; 133 μM HSA, 0-120 μM complex, 3 h or 30 min, pH=7.00 (PBS)): affects barely the quantity of free thiol groups

Molecule: [Cl-].[Cl-].[Ru+2].c1ccc(-c2ccccn2)nc1.c1ccc(-c2ccccn2)nc1.c1ccc(-c2ccccn2)nc1 [[Ru(bipy)3]Cl2]
- Φ(1O2) of reference in D2O / water ([1]; solution in D2O / water): 0.22

Molecule: O=C1C=Cc2cccc3cccc1c23 [phenalenone]
- Φ(1O2) of reference in CH3CN ([1]; solution in CH3CN): 0.95

- Interaction with Cys-34 thiol group of unfolded HSA (Cys-34 residue of HSA; 0.5% SDS as denaturing agent, 0.5 h incubation): nearly quantitative interaction
- Effect of incubation time on Cys-34 interaction (Cys-34 residue of HSA; 3 h versus 30 min incubation with HSA): did not result in remarkable differences
Molecule: [Ru(bphen)2(Me-maleimidemethyl)](Cl)2 [Compound 12]
